Results from US20030211076A1, “Compositions and methods for treatment of proliferative disorders” (priority 2003, published 2003).

Key:
[1] = tested on: transformed NIH 3T3 6-1 cells overexpressing FGF2; experiment: LO inhibition of tumor cell growth (cell counting, phase-contrast and fluorescent microscopy); assay type: cell-based, mouse
Method: Transformed NIH 3T3 6-1 cells (2×10^4) overexpressing FGF2 were plated and incubated overnight in 35 mm-dishes containing 2 ml 10% fetal bovine serum (FBS)/Dulbecco's Modified Eagle's (DME) medium, and then refed with 0.3% FBS/DMEM with different treatment regimens as shown in FIGS. 9A and 9B. FIG. 9A represents a dose response. Cells were treated with LO at various doses for a total of 6 days. Cultures were refed with fresh media supplemented with LO, as indicated, every two days. After treatment, cells were harvested by trypsinization and counted with a hemacytometer. FIG. 9B represents the effects of inactivation of LO by BAPN on tumor cell growth. LO was present at 25 nM and BAPN at 200 μM as indicated. Data represent the means (±sd) of three separate experiments each assessed with triplicate dishes.
Numerical and morphological alterations in tumor cells treated with LO were observed under phase-contrast microscopy (25×). FIG. 10 comprises the following: A, control; B, 25 nM LO; C, 25 nM LO+200 μM BAPN; D, 200 μM BAPN alone; and E and F, LO uptake by NIH3T3 6-1 cells. In E and F, cells grown on coverslips were exposed to FITC-conjugated LO (0.16 μg/ml) for 2 h, then fixed and examined by fluorescent microscopy (100×).

[2] = tested on: intracellular FGF2 in NIH 3T3 6-1 cells; experiment: Intracellular FGF2 crosslinking by LO, Western blotting with monoclonal anti-FGF2; assay type: cell-based, mouse
Method: The possibility that exposure of cells to LO alters the physical state of intracellular FGF2 was assessed by Western blotting with monoclonal anti-FGF2 of cell lysates. Subconfluent NIH 3T3 and NIH 3T3 6-1 cells were incubated for 20 h in 0.3% FBS/DMEM with or without additives as indicated below. Cells were suspended by trypsin treatment and lysed. Aliquots of lysates containing 50 μg of cell protein were analyzed by Western blotting of SDS-PAGE electrophoretograms probing with monoclonal anti-FGF2 (FIGS. 11A and 11B). Total protein was visualized by Coomassie blue staining of SDS-PAGE electrophoretograms (FIG. 11C). FIG. 11A represents FGF2 expression in NIH 3T3 (lane 1) and NIH 3T3 6-1 cells (lane 2). FIG. 11B represents forms of intracellular FGF2 in NIH 3T3 6-1 cells incubated in the absence (lane 1) or presence of 25 nM LO (lane 2) or presence of 25 nM LO which had been preincubated with 100 μM BAPN for 15 min at 37° C. (lane 3). FIG. 11C represents the total protein profiles in control and LO-treated cells with treatments in each lane corresponding to those in FIG. 11B.

[3] = tested on: growth-arrested Swiss 3T3 cells; experiment: FGF2-stimulated cell cycle progression, FACS analysis; assay type: cell-based
Method: The activity of native and LO-oxidized FGF2 on cell cycle progression was evaluated by using fluorescence activated cell sorting (FACS) analysis (Darzynkiewicz et al.). Swiss 3T3 cells were growth-arrested by incubation in 0.3% fetal bovine serum (FBS)/Dulbecco's Modified Eagle's Medium (DMEM) for 3 days. As depicted in FIGS. 6A-6C, the prepared growth-arrested cells were treated for 20 h at 37° C. with or without FGF2, LO, BAPN or their combinations as indicated. After treatment, cells were washed, suspended by treatment with trypsin, washed again and fixed in 0.5% formaldehyde/0.1% Triton X-100/PBS for 15 minutes on ice followed by incubation of samples in 10 μg propidium iodide and 20 units RNAse per ml of PBS for 60 minutes in the dark for DNA staining. The fluorescence intensities of each sample of 10,000 cells in G1, S and G2/M phases were measured by flow cytometry at the FL2 setting of the fluorescence activated cell sorting (FACS) instrument (Becton-Dickinson Corp.). […] LO was presented at 10 nM, FGF2 at 5 ng ml^−1 and BAPN at 100 μM. Data represent the means (+sd) of three separate experiments each assessed with duplicate dishes.

[4] = tested on: porcine pulmonary arterial VEC; experiment: Growth of VEGF165-stimulated VEC (cell counting); assay type: cell-based
Method: The effects of LO oxidized VEGF165 on cell proliferation was also assessed. VEGF165 is a potent mitogen for vascular endothelial cells (VEC). Porcine pulmonary arterial VEC (2×10^4) were plated and incubated overnight in 35 mm-dishes containing 2 ml 15% FBS/M199 medium, and then refed with 5% FBS/M199 with different treatment regimens as shown in A, B and C of FIG. 18. FIG. 18A represents a dose response of VEGF165-stimulated cell growth. Media were supplemented with VEGF165 at the indicated doses and cells were incubated for additional 3 days. Cultures were refed once during the incubation period with fresh media supplemented with VEGF165 at indicated doses. Cells were harvested by trypsinization and counted with a hemacytometer. FIG. 18B represents the LO inhibition of VEGF165-stimulated cell growth. FIG. 18C represents the effects of inactivation of LO by BAPN on VEGF165-stimulated cell growth. […] Data represent the means (±sd) of three separate experiments each assessed with triplicate dishes.

Molecule | proliferation relative to the control ([1]; 200 μM BAPN added with 25 nM LO, 6 days) [fold] | tumor cell growth relative to the control ([1]; 200 μM BAPN in the absence of added LO, 6 days) [fold] | effect on LO-induced FGF2 oligomer formation ([2]; 25 nM LO preincubated with 100 μM BAPN for 15 min at 37° C.) | response relative to that observed with FGF2 alone ([3]; FGF2 5 ng/ml treated with 10 nM LO and 100 μM BAPN) [%] | effect on LO inhibition of VEGF165-stimulated VEC proliferation ([4]; 100 μM BAPN) | decrease of cell number compared to the control (maximal inhibition) ([1]; 25 nM LO, 6 days, 0.3% FBS/DMEM) [%] | numerical and morphological alterations in tumor cells ([1]; 25 nM LO, phase-contrast microscopy) | forms of intracellular FGF2 ([2]; 25 nM LO, 20 h) | maximal decrease of FGF2 stimulation of cell cycle progression ([3]; 10 nM (0.32 μg/ml) LO, 0.28 nM FGF2) [%] | VEGF165-dependent cell growth ([4]; VEGF165 15 ng/ml)
N#CCCN [BAPN, β-Aminopropionitrile, reference compound] | 3 | 2.5 | prevented | 82±6 | effectively blocked | – | – | – | – | –
lysyl oxidase [LO] | – | – | – | – | – | 95 | induced cell death | induced the formation of crosslinked dimers and oligomers of FGF2 within the cells | 80 | inhibited VEGF165-dependent cell growth with increased doses
